Where two headings read alike, the source gives them in different places.
Legend:
Experiment in all cases: Kinase selectivity, scanMAX Kinase assay panel (DiscoverX), % control at 1 uM
Format in all cases: binding
[1] = target: T1, scanMAX Kinase assay panel (Homo sapiens, UniProt Q99759); conditions: MAP3K3; 1 uM; read-out: Percent Control (%)
T1 construct: purchased DiscoverX
T1 sequence (Q99759 1-626): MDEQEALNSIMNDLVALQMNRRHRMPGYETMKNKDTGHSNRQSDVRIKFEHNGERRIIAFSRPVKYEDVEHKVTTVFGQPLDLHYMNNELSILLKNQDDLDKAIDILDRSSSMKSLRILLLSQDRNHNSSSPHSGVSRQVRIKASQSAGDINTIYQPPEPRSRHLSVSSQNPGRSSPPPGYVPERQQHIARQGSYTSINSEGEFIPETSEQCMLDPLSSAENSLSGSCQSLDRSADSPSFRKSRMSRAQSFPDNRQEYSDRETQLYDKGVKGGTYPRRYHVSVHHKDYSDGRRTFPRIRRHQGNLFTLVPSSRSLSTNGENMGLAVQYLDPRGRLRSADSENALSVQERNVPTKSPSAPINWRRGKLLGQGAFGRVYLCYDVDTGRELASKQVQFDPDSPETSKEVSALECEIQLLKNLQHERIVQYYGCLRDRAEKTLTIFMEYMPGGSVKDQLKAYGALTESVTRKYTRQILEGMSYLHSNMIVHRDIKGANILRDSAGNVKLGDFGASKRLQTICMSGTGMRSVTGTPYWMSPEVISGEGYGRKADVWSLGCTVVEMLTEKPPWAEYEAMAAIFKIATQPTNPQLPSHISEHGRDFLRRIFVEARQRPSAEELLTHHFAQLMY
Summary of the method: (§1)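 Read-out is percent of control, derived from the signal with compound relative to positive and negative controls: (compound − positive)/(negative − positive) × 100. Each enzyme received test drug at 1 uM in DMSO, and values under 35% count as active.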

[2] = target: T2, scanMAX Kinase assay panel (Homo sapiens, UniProt P42336, Q546K); conditions: PIK3CA (Q546K); 1 uM; read-out: Percent Control (%)
T2 construct: purchased DiscoverX
Summary of the method: as §1

[3] = target: T3, scanMAX Kinase assay panel (Homo sapiens, UniProt P42338); conditions: PIK3CB; 1 uM; read-out: Percent Control (%)
T3 construct: purchased DiscoverX
Summary of the method: as §1

[4] = target: T4, scanMAX Kinase assay panel (Homo sapiens, UniProt P00519, M351T); conditions: ABL1 (M351T)-phosphorylated; 1 uM; read-out: Percent Control (%)
T4 construct: purchased DiscoverX
Summary of the method: as §1

[5] = target: T5, scanMAX Kinase assay panel (Homo sapiens, UniProt P08581, Y1235D); conditions: MET (Y1235D); 1 uM; read-out: Percent Control (%)
T5 construct: purchased DiscoverX
Summary of the method: as §1

[6] = target: T6, scanMAX Kinase assay panel (Homo sapiens, UniProt Q6P3R8); conditions: NEK5; 1 uM; read-out: Percent Control (%)
T6 construct: purchased DiscoverX
T6 sequence (Q6P3R8 1-708): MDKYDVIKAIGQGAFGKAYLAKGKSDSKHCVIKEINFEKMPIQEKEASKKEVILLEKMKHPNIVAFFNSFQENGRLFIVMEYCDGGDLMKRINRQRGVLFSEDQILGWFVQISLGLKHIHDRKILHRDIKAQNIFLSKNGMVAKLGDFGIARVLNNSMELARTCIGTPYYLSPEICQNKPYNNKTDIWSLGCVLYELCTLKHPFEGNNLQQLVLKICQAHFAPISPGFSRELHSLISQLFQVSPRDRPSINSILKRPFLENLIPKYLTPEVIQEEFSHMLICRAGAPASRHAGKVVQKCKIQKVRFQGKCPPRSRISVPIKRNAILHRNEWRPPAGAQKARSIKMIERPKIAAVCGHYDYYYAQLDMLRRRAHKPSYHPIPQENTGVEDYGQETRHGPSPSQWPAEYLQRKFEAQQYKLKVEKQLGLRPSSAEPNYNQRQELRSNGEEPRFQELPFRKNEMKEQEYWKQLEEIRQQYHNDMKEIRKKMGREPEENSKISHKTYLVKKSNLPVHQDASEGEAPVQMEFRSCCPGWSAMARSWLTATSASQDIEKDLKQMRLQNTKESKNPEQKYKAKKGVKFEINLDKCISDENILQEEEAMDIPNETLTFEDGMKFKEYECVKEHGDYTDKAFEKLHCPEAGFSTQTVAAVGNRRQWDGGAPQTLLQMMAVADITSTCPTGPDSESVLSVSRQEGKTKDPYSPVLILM
Summary of the method: as §1

[7] = target: T7, scanMAX Kinase assay panel (Homo sapiens, UniProt O95747); conditions: OSR1; 1 uM; read-out: Percent Control (%)
T7 construct: purchased DiscoverX
Summary of the method: as §1

[8] = target: T8, scanMAX Kinase assay panel (Homo sapiens, UniProt P42336, E542K); conditions: PIK3CA (E542K); 1 uM; read-out: Percent Control (%)
T8 construct: purchased DiscoverX
Summary of the method: as §1

[9] = target: T9, scanMAX Kinase assay panel (Homo sapiens, UniProt P22455); conditions: FGFR4; 1 uM; read-out: Percent Control (%)
T9 construct: purchased DiscoverX
Summary of the method: as §1

[10] = target: T10, scanMAX Kinase assay panel (Homo sapiens, UniProt P29597); conditions: 1 uM, read-out: Percent Control (%)
T10 construct: purchased DiscoverX
Summary of the method: as §1

[11] = target: T11, scanMAX Kinase assay panel (Homo sapiens, UniProt Q9UBF8); conditions: PIK4CB; 1 uM; read-out: Percent Control (%)
T11 construct: purchased DiscoverX
Summary of the method: as §1

T8 sequence (P42336 whole entry E542K): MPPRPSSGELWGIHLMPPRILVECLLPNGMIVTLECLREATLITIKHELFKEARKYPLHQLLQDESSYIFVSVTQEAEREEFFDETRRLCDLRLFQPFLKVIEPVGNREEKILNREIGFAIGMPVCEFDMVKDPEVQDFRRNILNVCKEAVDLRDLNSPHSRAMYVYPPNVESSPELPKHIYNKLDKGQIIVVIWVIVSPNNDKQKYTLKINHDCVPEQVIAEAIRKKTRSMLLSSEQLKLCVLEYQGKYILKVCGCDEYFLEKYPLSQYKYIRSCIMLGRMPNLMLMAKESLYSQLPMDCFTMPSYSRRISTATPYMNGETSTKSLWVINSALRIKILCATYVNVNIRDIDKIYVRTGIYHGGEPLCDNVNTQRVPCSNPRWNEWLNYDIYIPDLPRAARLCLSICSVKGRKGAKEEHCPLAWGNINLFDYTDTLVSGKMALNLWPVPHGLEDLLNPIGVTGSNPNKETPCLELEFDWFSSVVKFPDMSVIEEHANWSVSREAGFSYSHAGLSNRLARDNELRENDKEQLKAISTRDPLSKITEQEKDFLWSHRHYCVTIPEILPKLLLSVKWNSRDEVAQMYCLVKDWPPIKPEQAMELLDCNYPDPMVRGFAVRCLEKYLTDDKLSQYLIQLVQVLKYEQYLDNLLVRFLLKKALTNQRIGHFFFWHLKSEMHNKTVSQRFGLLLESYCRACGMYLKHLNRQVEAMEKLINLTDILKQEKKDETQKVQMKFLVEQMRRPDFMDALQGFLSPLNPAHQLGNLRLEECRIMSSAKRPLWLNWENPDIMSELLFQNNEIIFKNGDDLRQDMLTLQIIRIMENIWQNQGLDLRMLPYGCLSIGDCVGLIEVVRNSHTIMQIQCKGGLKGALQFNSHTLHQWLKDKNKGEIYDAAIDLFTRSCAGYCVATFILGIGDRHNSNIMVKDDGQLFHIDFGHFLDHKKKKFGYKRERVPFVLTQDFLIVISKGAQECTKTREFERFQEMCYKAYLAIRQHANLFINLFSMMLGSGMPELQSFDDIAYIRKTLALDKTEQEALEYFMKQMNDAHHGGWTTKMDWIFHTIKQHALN
T2 sequence (P42336 whole entry Q546K): as the sequence (P42336 whole entry E542K) above, with K542E, Q546K counted along it
T10 sequence (P29597 whole entry): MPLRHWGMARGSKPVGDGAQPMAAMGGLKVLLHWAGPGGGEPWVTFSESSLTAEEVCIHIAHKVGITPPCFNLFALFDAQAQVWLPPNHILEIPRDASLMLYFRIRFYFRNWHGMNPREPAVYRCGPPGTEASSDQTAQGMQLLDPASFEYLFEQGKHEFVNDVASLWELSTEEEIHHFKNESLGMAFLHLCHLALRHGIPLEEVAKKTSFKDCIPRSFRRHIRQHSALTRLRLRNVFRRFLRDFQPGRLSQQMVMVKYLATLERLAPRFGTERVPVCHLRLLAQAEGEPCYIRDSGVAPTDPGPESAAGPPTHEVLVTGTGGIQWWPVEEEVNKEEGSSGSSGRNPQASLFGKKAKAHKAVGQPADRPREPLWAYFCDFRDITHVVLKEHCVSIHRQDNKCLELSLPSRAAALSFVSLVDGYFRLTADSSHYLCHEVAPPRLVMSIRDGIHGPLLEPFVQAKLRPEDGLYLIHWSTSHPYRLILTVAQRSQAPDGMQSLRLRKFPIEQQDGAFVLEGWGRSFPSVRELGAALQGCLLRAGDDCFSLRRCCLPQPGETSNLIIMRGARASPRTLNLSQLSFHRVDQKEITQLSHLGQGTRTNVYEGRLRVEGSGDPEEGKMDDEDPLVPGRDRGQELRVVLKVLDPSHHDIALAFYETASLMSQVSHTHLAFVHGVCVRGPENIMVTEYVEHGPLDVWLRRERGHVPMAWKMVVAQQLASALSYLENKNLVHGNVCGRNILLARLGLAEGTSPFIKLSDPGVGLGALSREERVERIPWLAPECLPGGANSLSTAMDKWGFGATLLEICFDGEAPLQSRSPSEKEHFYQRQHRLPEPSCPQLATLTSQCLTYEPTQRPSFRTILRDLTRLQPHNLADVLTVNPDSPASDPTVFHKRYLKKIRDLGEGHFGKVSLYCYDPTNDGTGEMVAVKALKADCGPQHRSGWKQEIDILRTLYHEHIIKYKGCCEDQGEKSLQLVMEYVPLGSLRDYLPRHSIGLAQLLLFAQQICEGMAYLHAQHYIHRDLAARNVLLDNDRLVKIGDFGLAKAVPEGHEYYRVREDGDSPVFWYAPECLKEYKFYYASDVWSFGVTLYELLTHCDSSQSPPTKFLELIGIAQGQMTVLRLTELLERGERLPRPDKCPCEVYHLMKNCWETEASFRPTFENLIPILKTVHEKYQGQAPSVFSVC
T11 sequence (Q9UBF8 whole entry): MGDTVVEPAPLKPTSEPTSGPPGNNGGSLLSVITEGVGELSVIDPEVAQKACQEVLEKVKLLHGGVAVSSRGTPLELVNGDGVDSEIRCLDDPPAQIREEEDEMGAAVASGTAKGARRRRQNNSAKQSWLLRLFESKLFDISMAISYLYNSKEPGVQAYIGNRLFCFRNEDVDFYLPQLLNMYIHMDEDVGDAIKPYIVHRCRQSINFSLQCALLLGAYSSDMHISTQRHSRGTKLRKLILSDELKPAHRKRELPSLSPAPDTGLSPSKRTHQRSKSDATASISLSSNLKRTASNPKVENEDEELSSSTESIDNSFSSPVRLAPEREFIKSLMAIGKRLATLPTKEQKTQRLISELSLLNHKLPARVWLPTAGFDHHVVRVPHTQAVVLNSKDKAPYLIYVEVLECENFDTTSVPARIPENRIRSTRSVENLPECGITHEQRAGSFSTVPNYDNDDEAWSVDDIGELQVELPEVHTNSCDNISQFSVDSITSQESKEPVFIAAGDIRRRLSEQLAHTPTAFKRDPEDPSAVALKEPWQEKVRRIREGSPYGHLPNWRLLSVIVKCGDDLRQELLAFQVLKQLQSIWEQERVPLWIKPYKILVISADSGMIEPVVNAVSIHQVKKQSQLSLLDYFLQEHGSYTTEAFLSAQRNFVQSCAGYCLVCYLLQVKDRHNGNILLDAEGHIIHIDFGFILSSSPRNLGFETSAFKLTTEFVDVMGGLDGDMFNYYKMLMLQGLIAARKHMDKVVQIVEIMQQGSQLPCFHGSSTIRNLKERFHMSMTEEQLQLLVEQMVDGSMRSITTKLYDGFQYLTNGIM
T3 sequence (P42338 whole entry): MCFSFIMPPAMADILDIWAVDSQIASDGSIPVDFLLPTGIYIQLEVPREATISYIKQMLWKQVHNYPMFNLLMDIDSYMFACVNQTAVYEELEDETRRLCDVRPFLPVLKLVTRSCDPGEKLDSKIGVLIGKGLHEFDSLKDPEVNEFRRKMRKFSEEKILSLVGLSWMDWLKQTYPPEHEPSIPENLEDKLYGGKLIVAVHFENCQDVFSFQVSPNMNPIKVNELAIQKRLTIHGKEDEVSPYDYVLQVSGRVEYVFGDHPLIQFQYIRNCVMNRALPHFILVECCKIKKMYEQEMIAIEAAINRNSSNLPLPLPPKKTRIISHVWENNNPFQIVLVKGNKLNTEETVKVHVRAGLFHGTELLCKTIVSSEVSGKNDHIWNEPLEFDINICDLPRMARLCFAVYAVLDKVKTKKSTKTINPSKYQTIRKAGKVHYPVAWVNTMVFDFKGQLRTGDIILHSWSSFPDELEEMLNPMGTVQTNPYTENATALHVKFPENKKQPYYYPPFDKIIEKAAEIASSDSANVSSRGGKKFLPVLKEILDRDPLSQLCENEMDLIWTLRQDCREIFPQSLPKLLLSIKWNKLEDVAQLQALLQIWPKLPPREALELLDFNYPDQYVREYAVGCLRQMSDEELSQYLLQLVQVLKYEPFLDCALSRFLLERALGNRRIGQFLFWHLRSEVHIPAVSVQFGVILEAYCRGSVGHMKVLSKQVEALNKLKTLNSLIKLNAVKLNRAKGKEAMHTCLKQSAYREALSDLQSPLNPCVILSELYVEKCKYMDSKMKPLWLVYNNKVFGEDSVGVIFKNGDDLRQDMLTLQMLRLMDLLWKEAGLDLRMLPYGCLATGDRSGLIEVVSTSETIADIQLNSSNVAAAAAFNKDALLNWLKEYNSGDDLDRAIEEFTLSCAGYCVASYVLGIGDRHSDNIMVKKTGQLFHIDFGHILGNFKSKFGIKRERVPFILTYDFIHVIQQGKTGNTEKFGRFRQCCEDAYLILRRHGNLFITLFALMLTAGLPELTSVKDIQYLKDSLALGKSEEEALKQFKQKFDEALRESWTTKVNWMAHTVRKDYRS
T7 sequence (O95747 whole entry): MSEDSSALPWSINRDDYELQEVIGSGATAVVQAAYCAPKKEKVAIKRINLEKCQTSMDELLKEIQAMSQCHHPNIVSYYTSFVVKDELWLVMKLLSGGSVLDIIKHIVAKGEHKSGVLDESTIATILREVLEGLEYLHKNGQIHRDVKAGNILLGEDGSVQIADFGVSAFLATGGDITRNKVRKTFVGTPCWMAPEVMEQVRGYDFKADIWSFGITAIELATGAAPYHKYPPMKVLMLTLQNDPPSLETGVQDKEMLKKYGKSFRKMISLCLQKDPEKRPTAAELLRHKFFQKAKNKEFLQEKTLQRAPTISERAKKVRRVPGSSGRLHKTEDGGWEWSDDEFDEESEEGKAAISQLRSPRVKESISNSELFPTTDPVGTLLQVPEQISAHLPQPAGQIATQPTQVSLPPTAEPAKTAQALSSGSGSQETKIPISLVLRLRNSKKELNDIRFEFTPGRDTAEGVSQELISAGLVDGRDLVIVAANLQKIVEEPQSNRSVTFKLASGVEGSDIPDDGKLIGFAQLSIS

## Cc1ccc(C(=O)Nc2ccc(CN3CCN(C)CC3)c(C(F)(F)F)c2)cc1C#Cc1cnc2c(Nc3cnn(C)c3)cccn12 [Example 1, 4-methyl-3-((8-((1-methyl-1H-pyrazol-4-yl)amino)imidazo[1,2-a]pyridin-3-yl)ethynyl)-N-(4-((4-methylpiperazin-1-yl)methyl)-3-(trifluoromethyl)phenyl)benzamide]
[1]
  remaining binding at 1 µM: 0%
[2]
  remaining binding at 1 µM: 83%
[3]
  remaining binding at 1 µM: 92%
[4]
  remaining binding at 1 µM: 1%
[5]
  remaining binding at 1 µM: 61%
[6]
  remaining binding at 1 µM: 2%
[7]
  remaining binding at 1 µM: 88%
[8]
  remaining binding at 1 µM: 100%
[9]
  remaining binding at 1 µM: 0%
[10]; TYK2 (JH1domain-catalytic)
  remaining binding at 1 µM: 9%
[10]; TYK2 (JH2domain-pseudokinase)
  remaining binding at 1 µM: 100%
[11]
  remaining binding at 1 µM: 88%

## Cc1cn(-c2cc(NC(=O)c3ccc(C)c(C#Cc4cnc5c(Nc6cnn(C)c6)cccn45)c3)cc(C(F)(F)F)c2)cn1 [Example 12, 4-methyl-N-(3-(4-methyl-1H-imidazol-1-yl)-5-(trifluoromethyl)phenyl)-3-((8-((1-methyl-1H-pyrazol-4-yl)amino)imidazo[1,2-a]pyridin-3-yl)ethynyl)benzamide]
[1]
  remaining binding at 1 µM: 33%
[2]
  remaining binding at 1 µM: 100%
[3]
  remaining binding at 1 µM: 100%
[4]
  remaining binding at 1 µM: 11%
[5]
  remaining binding at 1 µM: 59%
[6]
  remaining binding at 1 µM: 86%
[7]
  remaining binding at 1 µM: 100%
[8]
  remaining binding at 1 µM: 100%
[9]
  remaining binding at 1 µM: 32%
[10]; TYK2 (JH1domain-catalytic)
  remaining binding at 1 µM: 96%
[10]; TYK2 (JH2domain-pseudokinase)
  remaining binding at 1 µM: 100%
[11]
  remaining binding at 1 µM: 100%

## Cc1ccc(NC(=O)C2(C(=O)Nc3ccc(F)cc3)CC2)cc1C#Cc1cnc2c(Nc3cnn(C(C)C)c3)cccn12 [Example 78]
[1]
  remaining binding at 1 µM: 77%
[2]
  remaining binding at 1 µM: 89%
[3]
  remaining binding at 1 µM: 100%
[4]
  remaining binding at 1 µM: 59%
[5]
  remaining binding at 1 µM: 82%
[6]
  remaining binding at 1 µM: 100%
[7]
  remaining binding at 1 µM: 100%
[8]
  remaining binding at 1 µM: 100%
[9]
  remaining binding at 1 µM: 100%
[10]; TYK2 (JH1domain-catalytic)
  remaining binding at 1 µM: 97%
[10]; TYK2 (JH2domain-pseudokinase)
  remaining binding at 1 µM: 100%
[11]
  remaining binding at 1 µM: 99%

Source: patent US10870647B2, “Imidazopyridine derivative, method for preparing same, and pharmaceutical composition containing same as active ingredient for preventing or treating cancer” (DAEGU-GYEONGBUK MEDICAL INNOVATION FOUNDATION, priority 2016, dated 2020)
